Data set [1] has as its system Hep 3B2. Nature of the data set: Inhibition of hypoxia-induced VEGF protein secretion in human Hep3B cells after 16 hrs by ELISA. Format: functional, cell-based.
The target in data set [2] is Hypoxia inducible factors; HIF-1-alpha, HIF-2-alpha (Homo sapiens, UniProt Q16665+Q99814). Kind of data set: Inhibition of hypoxia-induced HIF1 activation in human Hep3B cells by pGL3-HRE-luciferase reporter gene assay. The format is cell-based. As to conditions: hep 3b2.
Data set [3] can be described thus: Cytotoxicity against human Hep3B cells after 24 hrs by MTT assay. Format: cell-based. As to conditions: hep 3b2, 24 h.
Data set [4] has as its system Hep 3B2. Kind of data set: Inhibition of luciferase expression in human Hep3B cells after 16 hrs under hypoxic condition. Format: functional, cell-based.
Data set [5] deals with Hep 3B2. Nature of the data set: Effect on luciferase activity in human Hep3B cells exposed to hypoxic condition for 16 hrs. Format: functional, cell-based.

Some results are limits rather than exact numbers.

Regarding `CC(C)=CCc1c(O)ccc(C(=O)[C@H]2[C@@H](c3c(O)ccc(C(=O)/C=C/c4ccc(O)cc4O)c3O)C=C(C)C[C@@H]2c2ccc(O)cc2O)c1O`, the values for the IC50 (with Hep 3B2 [1]; in data set [2]) were 3.14 µM and 8.55 µM, respectively. Besides, the Activity entry in data set [3] is on record as “Dose-dependent effect”.
Consider `CC(C)=CCc1c(O)ccc(C(=O)[C@H]2[C@@H](c3c(O)ccc(C(=O)/C=C/c4ccc(O)cc4)c3O)C=C(C)C[C@@H]2c2ccc(O)cc2)c1O`, for which the results for the half-inhibitory concentration (IC50) (in the data set with Hep 3B2 [1]; in data set [2]) were 7.84 µM and 9.54 µM, respectively.
On to `CC(C)=CCC/C(C)=C/Cc1c(O)cc(O)cc1-c1cc2ccc(O)cc2o1` [ALBAFURAN A], for which the half-maximal inhibitory concentration (IC50) in the data set on Hep 3B2 [1] came to 2.62 µM; in data set [2], 6.27 µM. Besides, the Activity entry in data set [3] is “Dose-dependent effect”.
On to `CO[C@H]1/C=C\C=C(/C)C(=O)NC2=CC(=O)C(NCCN(C)C)=C(C[C@@H](C)C[C@H](OC)[C@H](O)[C@@H](C)/C=C(\C)[C@@H]1OC(N)=O)C2=O` [ALVESPIMYCIN], for which the values for the IC50 (with Hep 3B2 [1]; in data set [2]) were 0.0795 µM and above 30 µM, respectively.
As to `Oc1cc(O)cc(-c2cc3ccc(O)cc3o2)c1` [MORACIN M], the IC50 is above 50 µM with Hep 3B2 [1] and above 30 µM in data set [2].
As for `CC(C)(O)C1Cc2cc3cc(-c4cc(O)cc(O)c4)oc3cc2O1` (stereo not drawn) [MORACIN O], the IC50 with Hep 3B2 [4] is 0.00179 µM; in the data set with Hep 3B2 [1], 7.22 µM; in data set [2] it was above 30 µM. In addition, in the data set on Hep 3B2 [5], the midpoint of the response, the EC50, lay at 0.001 µM. For the same molecule, the Activity result in data set [3] is listed as “Dose-dependent effect”.
For the molecule `CC1(C)Oc2cc3oc(-c4cc(O)cc(O)c4)cc3cc2C[C@H]1O` [MORACIN P], the 50% inhibitory concentration (IC50) with Hep 3B2 [1] was 10.6 µM; in data set [2], above 30 µM. For the same molecule, in data set [3], the Activity entry is given as “Dose-dependent effect”.
`COc1c(O)cc2oc(-c3cc(O)cc(O)c3)cc2c1CC(=O)C(C)C` [MORACIN Q]: the results for the concentration for half-maximal inhibition (IC50) (in the data set with Hep 3B2 [1]; in data set [2]) were 9.28 µM and above 30 µM, respectively. In data set [3], the Activity entry is recorded as “Dose-dependent effect”.
For the molecule `CC(C)=CCC/C(C)=C/Cc1c(O)ccc2cc(-c3cc(O)cc(O)c3CC=C(C)C)oc12` [MULBERROFURAN D], the IC50 in the data set with Hep 3B2 [1] came out at 2.17 µM; in data set [2], 8.76 µM. Further, the Activity result in data set [3] is listed as “Dose-dependent effect”.
As for `CC1=C[C@H]2c3c(O)cc(-c4cc5ccc(O)cc5o4)cc3O[C@@]3(c4ccc(O)cc4O)Oc4cc(O)ccc4[C@H](C1)[C@@H]23` [MULBERROFURAN G], the values for the IC50 (with Hep 3B2 [1]; in data set [2]) were 28.6 µM and above 30 µM, respectively.
Consider `C[C@@]12C=C(c3c(O)cc(-c4cc5ccc(O)cc5o4)cc3O)C[C@@H](C1)c1ccc(O)cc1O2` [MULBERROFURAN H], for which the concentration for half-maximal inhibition (IC50) with Hep 3B2 [1] is 15.4 µM; in data set [2] it was above 30 µM. The Activity entry in data set [3] is listed as “Dose-dependent effect”.
`CC(C)=CCC/C(C)=C\CC/C(C)=C\Cc1c(O)cc(O)cc1-c1cc2ccc(O)cc2o1` [MULBERROFURAN W]: the results for the half-inhibitory concentration (IC50) (with Hep 3B2 [1]; in data set [2]) were 3.05 µM and 6.07 µM, respectively.
On to `CC(C)=CC[C@]12Oc3cc(O)c([C@H]4C=C(C)C[C@H](c5ccc(O)cc5O)[C@H]4C(=O)c4ccc(O)cc4O)c(O)c3C(=O)[C@@]1(O)Oc1cc(O)ccc12` [SANGGENON C], for which the IC50 came out at 3.2 µM in the data set on Hep 3B2 [1] and 8.26 µM in data set [2].
For the molecule `CC(C)=CC[C@@]12Oc3cc(O)c([C@H]4C=C(C)C[C@H](c5ccc(O)cc5O)[C@H]4C(=O)c4ccc(O)cc4O)c(O)c3C(=O)[C@]1(O)Oc1cc(O)ccc12` [SANGGENON O], the IC50 in the data set on Hep 3B2 [1] came out at 2.08 µM; in data set [2], 8.75 µM. Also, the Activity entry in data set [3] is listed as “Dose-dependent effect”.

The record behind these values is ChEMBL document CHEMBL1151479, “Hypoxia-inducible factor-1 inhibitory benzofurans and chalcone-derived diels-alder adducts from Morus species” (J Nat Prod, 2009).
